Laboratory results from patent US9889099B2, “Method and composition for enhancing milk production” (LAND O'LAKES, INC., priority 1999, dated 2018).

Legend:
[1] = test system: lactating cows; test: Example 1: feeding lactating cows control ration plus about 100 g sorbitol per day, 28 day test period; type: in vivo, Holstein cows
From the text: In this example, twenty Holstein cows averaging about thirty days in milk each, and thus in early lactation, were arranged in a randomized complete block design. Ten of the twenty cows were orally fed a control ration, and the other ten cows were orally fed a test ration that consisted of the control ration plus about 100 grams of sorbitol per day per cow. The cows were blocked by parity milk production, based upon the level of milk production by individual cows, after being in milk for fifteen to twenty days. After being blocked by parity milk production, the cows were randomly allotted to the control ration feeding or to the test ration feeding. The components of the control ration used in this example are shown in Table 1: The control ration was placed in the feeding troughs of the cattle once daily in the morning. When the test ration was to be provided to the test cattle, sorbitol was top dressed and lightly mixed into the control ration in the feeding trough of each cow being supplied with the test ration dosage of about 100 grams of sorbitol per cow per day, about one hour after the control ration was placed in the feeding trough. Then, the control ration and the test ration were lightly mixed in front of the cows six times per day to encourage additional feed ingestion by the cattle. Leftover rations from the previous day's feeding were collected and weighed from each feeding trough prior to feeding the test cattle the next day. The cows received a sufficient amount of the control ration to ensure that at least about ten weight percent, based upon the amount of control ration provided at the beginning of each day, remained per day for each test cow. The amount of sorbitol that was top dressed in the control ration to form the test ration was adjusted upward to account for the excess of control ration provided to ensure that the cows ingested the test ration dosage of about 100 grams of sorbitol per cow per day. Feed refusals were measured daily, and water was supplied ad libitum. […] Each cow was milked three times daily and the weight of produced milk was recorded at each milking. The milk was sampled once per day (⅓ of the sample volume from each milking) and was analyzed for protein, fat, lactose, and total solids, in accordance with the property determination and characterization techniques presented above. The milk production and milk component data was analyzed using the general linear model (GLM) statistical procedure of SAS® statistical analysis software for a randomized, complete block design that included both the particular feed regimen and the week of the test period in the model statement. […] Additionally, all data was analyzed to determine the mean of the data for each variable under consideration over the entire experimental period. […]

[2] = Passage of orally fed sorbitol through the rumen into the abomasum; type: in vivo, ruminant; conditions: within about six to about eight hours after entering the rumen; based on total amount orally fed

OC[C@@H](O)[C@@H](O)[C@H](O)[C@@H](O)CO [sorbitol]
Dry Matter Intake ([1]; about 100 g sorbitol/day/cow mixed with control ration, mean over 28 days, control 47.2, P 0.54): 45.6 pounds/day/cow | Milk Production ([1]; about 100 g sorbitol/day/cow mixed with control ration, mean over 28 days, control 88.9, P 0.02): 93.5 pounds/day/cow | difference in dry matter intake between control ration and test ration (FIG. 1) ([1]; about 100 g sorbitol/day/cow, P 0.54): statistically insignificant | daily milk production at each weekly data point versus control cows (FIG. 2) ([1]; about 100 g sorbitol/day/cow, weekly means over four weeks): significant increase | share of orally fed sugar alcohol passing through the rumen into the abomasum [2]: at least 50 weight percent
